From US7456216B2, “Methods for the preparation and formulation of l-carnitine valproate salts” (BioLink Life Sciences, Inc., priority 2007, dated 2008)

Key:
[1] = Storage in ambient atmosphere, gross weight monitored over 6 days (hygroscopicity); format: physicochemical; conditions: for Conclusion & Observations (hygroscopicity): 6 days in ambient atmosphere; for Net weight, final / Change of net weight, final vs initial: after 6 days in ambient atmosphere; for Net weight, initial: weighed portion before exposure to ambient atmosphere
Protocol: The effects of storage of the L-carnitine valproate salts of Examples 1 and 2 in ambient atmospheres were monitored for 6 days. For comparison, L-carnitine (Sigma Aldrich Chemical Co.), sodium valproate (Sigma Aldrich Chemical Co.), and divalproex sodium were also monitored in the same manner. The experiment was performed by weighing portions of each compound into a tared glass container and periodically monitoring the gross weight of the compound+container over a 6 day period.

[2] = conventional L-carnitine; cited from earlier work
[3] = cited from earlier work
[4] = Storage in a closed and sealed container (stability, odor); format: physicochemical; conditions: for Odor detected during storage: trimethylamine odor indicates degradation
From the text: L-Carnitine magnesium salts of the present invention are stable when stored in a closed and sealed container. […] Both L-carnitine calcium valproate and L-carnitine magnesium valproate are converted to the corresponding hydrates by exposure to water vapor in the atmosphere. Each hydrate has a characteristic melting point.

[5] = Solubility in water or aqueous solutions; format: physicochemical
deacetylase = conditions: dose between 20 and 40 mg/kg; patients with cervical cancer; cited from earlier work

Compound | Conclusion & Observations (hygroscopicity) [1] | Net weight, final [1] [mg] | Net weight, initial [1] [mg] | other results
CCCC(CCC)C(=O)O [Divalproex sodium, reference compound] | Mass of the material did not change. Material is not hygroscopic. | 100 | 100 | –
C[N+](C)(C)C[C@H](O)CC(=O)[O-] [L-Carnitine, L-(−)-Carnitine] | Material is hygroscopic. | >227 | 208 | Bioavailability of L-carnitine [2]: 15-20 % of the administered dose
CCCC(CCC)C(=O)[O-].[Na+] [Sodium valproate, reference compound] | very hygroscopic. | – | – | –
CCCC(CCC)C(=O)O [Valproic acid, 2-propylpentanoic acid] | – | – | – | Solubility in water [3]: very slightly soluble in water
L-carnitine calcium valproate | Appearance and mobility of the material did not change. Material absorbed water | 202 | 194 | Change of net weight, final vs initial [1]: (+5%); Stability during storage [4]: stable; Odor detected during storage [4]: no odor is detected
L-carnitine magnesium valproate | Material absorbed water and was converted to a hydrate, which is further | 163 | 142 | Change of net weight, final vs initial [1]: (+15%); Stability during storage [4]: stable; Odor detected during storage [4]: a slight odor of trimethylamine is detected; Solubility in water or aqueous solutions [5]: readily dissolved in water or aqueous solutions
magnesium 2-propylvalerate [magnesium valproate] | – | – | – | Deacetylase activity in tumor tissues (deacetylase): inhibits deacetylase activity and hyperacetylates histones in tumor tissues
